Measurements from ChEMBL document CHEMBL3885861, “Open TG-GATES”.

Species on record: Rattus norvegicus
Experiment: Open TG-GATES - Regimen: Single
Type: toxicity, organism-based, Sprague-Dawley
Set-up: regimen Single, gender Male, age 6 weeks
Conditions: in vivo, po, 0 mg/kg, route gavage, dose level Control; for APTT / Bas / Eos / Fbg / Hb / Ht / Lym / MCH / MCHC / MCV / Mono / Neu / PT / Plat / RBC / Ret / WBC: tissue Blood; for KIDNEY_L / KIDNEY_R / KIDNEY_TOTAL: tissue Kidney; for LIVER: tissue Liver; for A/G / ALP / ALT / AST / BUN / CRE / Ca / Cl / DBIL / GLC / IP / K / LDH / Na / PL / RALB / TBIL / TC / TG / TP / gamma-GTP: tissue Plasma

CCCc1cc(=O)[nH]c(=S)[nH]1 [PROPYLTHIOURACIL]
TERMINAL_BW (3 h): 182.7 g | APTT (3 h): 15.8 s | Bas (3 h): 0% | Eos (3 h): 1% | Fbg (3 h): 217.4 mg/dL | Hb (3 h): 13.2 g/dL | Ht (3 h): 39.8% | Lym (3 h): 78.6% | MCH (3 h): 22.3 pg | MCHC (3 h): 33.3% | MCV (3 h): 67.1 fL | Mono (3 h): 6.2% | Neu (3 h): 14.6% | PT (3 h): 12.6 s | Plat (3 h): 108.3 x10_4/uL | RBC (3 h): 593.2 x10_4/ul | Ret (3 h): 10.7% | WBC (3 h): 86.3 x10_2/uL | KIDNEY_L (3 h): 0.8 g | KIDNEY_R (3 h): 0.8 g | KIDNEY_TOTAL (3 h): 1.7 g | LIVER (3 h): 8.7 g | A/G (3 h): 2 | ALP (3 h): 886.8 IU/L | ALT (3 h): 39.6 IU/L | AST (3 h): 69.8 IU/L | BUN (3 h): 13.2 mg/dL | CRE (3 h): 0.4 mg/dL | Ca (3 h): 11 mg/dL | Cl (3 h): 105 meq/L | DBIL (3 h): 0.024 mg/dL | GLC (3 h): 192.6 mg/dL | IP (3 h): 9.9 mg/dL | K (3 h): 5 meq/L | LDH (3 h): 87.6 IU/L | Na (3 h): 138.6 meq/L | PL (3 h): 140.2 mg/dL | RALB (3 h): 3.6 g/dL | TBIL (3 h): 0.3 mg/dL | TC (3 h): 82.4 mg/dL | TG (3 h): 37.2 mg/dL | TP (3 h): 5.5 g/dL | gamma-GTP (3 h): 0.8 IU/L | TERMINAL_BW (6 h): 178.3 g | APTT (6 h): 16.1 s | Bas (6 h): 0% | Eos (6 h): 0% | Fbg (6 h): 206.8 mg/dL | Hb (6 h): 13 g/dL | Ht (6 h): 39.3% | Lym (6 h): 80% | MCH (6 h): 21.5 pg | MCHC (6 h): 33.1% | MCV (6 h): 64.8 fL | Mono (6 h): 6.4% | Neu (6 h): 13.6% | PT (6 h): 12.6 s | Plat (6 h): 107.1 x10_4/uL | RBC (6 h): 606.2 x10_4/ul | Ret (6 h): 10.4% | WBC (6 h): 111.4 x10_2/uL | KIDNEY_L (6 h): 0.8 g | KIDNEY_R (6 h): 0.8 g | KIDNEY_TOTAL (6 h): 1.6 g | LIVER (6 h): 7.9 g | A/G (6 h): 2.2 | ALP (6 h): 853.4 IU/L | ALT (6 h): 34.2 IU/L | AST (6 h): 66.8 IU/L | BUN (6 h): 11.8 mg/dL | CRE (6 h): 0.5 mg/dL | Ca (6 h): 10.7 mg/dL | Cl (6 h): 105.2 meq/L | DBIL (6 h): 0.046 mg/dL | GLC (6 h): 182 mg/dL | IP (6 h): 10 mg/dL | K (6 h): 5 meq/L | LDH (6 h): 82.2 IU/L | Na (6 h): 137.6 meq/L | PL (6 h): 136.6 mg/dL | RALB (6 h): 3.6 g/dL | TBIL (6 h): 0.3 mg/dL | TC (6 h): 80 mg/dL | TG (6 h): 33.4 mg/dL | TP (6 h): 5.4 g/dL | gamma-GTP (6 h): 1.8 IU/L | TERMINAL_BW (9 h): 175.9 g | APTT (9 h): 16 s | Bas (9 h): 0% | Eos (9 h): 1.2% | Fbg (9 h): 215.4 mg/dL | Hb (9 h): 13.1 g/dL | Ht (9 h): 39.7% | Lym (9 h): 77.8% | MCH (9 h): 22 pg | MCHC (9 h): 33.1% | MCV (9 h): 66.2 fL | Mono (9 h): 6.2% | Neu (9 h): 15.2% | PT (9 h): 12.5 s | Plat (9 h): 107.3 x10_4/uL | RBC (9 h): 599.2 x10_4/ul | Ret (9 h): 10.2% | WBC (9 h): 95.1 x10_2/uL | KIDNEY_L (9 h): 0.8 g | KIDNEY_R (9 h): 0.9 g | KIDNEY_TOTAL (9 h): 1.7 g | LIVER (9 h): 7.6 g | A/G (9 h): 2 | ALP (9 h): 741.2 IU/L | ALT (9 h): 33.6 IU/L | AST (9 h): 61.8 IU/L | BUN (9 h): 13.8 mg/dL | CRE (9 h): 0.5 mg/dL | Ca (9 h): 10.6 mg/dL | Cl (9 h): 107.4 meq/L | DBIL (9 h): 0.006 mg/dL | GLC (9 h): 195.4 mg/dL | IP (9 h): 11.1 mg/dL | K (9 h): 5.2 meq/L | LDH (9 h): 102.4 IU/L | Na (9 h): 139.8 meq/L | PL (9 h): 132.2 mg/dL | RALB (9 h): 3.6 g/dL | TBIL (9 h): 0.4 mg/dL | TC (9 h): 76 mg/dL | TG (9 h): 35.6 mg/dL | TP (9 h): 5.5 g/dL | gamma-GTP (9 h): 2.2 IU/L | TERMINAL_BW (24 h): 192.6 g | APTT (24 h): 16.1 s | Bas (24 h): 0% | Eos (24 h): 1% | Fbg (24 h): 211.2 mg/dL | Hb (24 h): 13.2 g/dL | Ht (24 h): 40% | Lym (24 h): 76.6% | MCH (24 h): 21.6 pg | MCHC (24 h): 33% | MCV (24 h): 65.5 fL | Mono (24 h): 9% | Neu (24 h): 13.6% | PT (24 h): 12.4 s | Plat (24 h): 104.6 x10_4/uL | RBC (24 h): 611.6 x10_4/ul | Ret (24 h): 9.6% | WBC (24 h): 123.5 x10_2/uL | KIDNEY_L (24 h): 0.8 g | KIDNEY_R (24 h): 0.9 g | KIDNEY_TOTAL (24 h): 1.7 g | LIVER (24 h): 9.1 g | A/G (24 h): 2 | ALP (24 h): 974.2 IU/L | ALT (24 h): 46.2 IU/L | AST (24 h): 70.2 IU/L | BUN (24 h): 19.2 mg/dL | CRE (24 h): 0.6 mg/dL | Ca (24 h): 10.9 mg/dL | Cl (24 h): 105.2 meq/L | DBIL (24 h): 0.016 mg/dL | GLC (24 h): 196.6 mg/dL | IP (24 h): 7.9 mg/dL | K (24 h): 5 meq/L | LDH (24 h): 86.6 IU/L | Na (24 h): 138.6 meq/L | PL (24 h): 152.8 mg/dL | RALB (24 h): 3.7 g/dL | TBIL (24 h): 0.3 mg/dL | TC (24 h): 83.2 mg/dL | TG (24 h): 96.2 mg/dL | TP (24 h): 5.6 g/dL | gamma-GTP (24 h): 2.4 IU/L
